Measurements taken from ChEMBL document CHEMBL1201862, “PubChem BioAssay data set” (2004).
The source made the active and inactive calls.

Experiments:
[1] = target: Dual specificity tyrosine-phosphorylation-regulated kinase 1A (Rattus norvegicus, UniProt Q63470); format: biochemical, Homo sapiens
[2] = target: Trypsin (Sus scrofa, UniProt P00761); experiment: trypsin protease activity blockade – biochemical, quenched peptide fluorescence, cherry-pick, selectivity assay for Rce1 protease inhibitor project, dose response (AID 488789)
Chain of Trypsin (P00761 whole entry): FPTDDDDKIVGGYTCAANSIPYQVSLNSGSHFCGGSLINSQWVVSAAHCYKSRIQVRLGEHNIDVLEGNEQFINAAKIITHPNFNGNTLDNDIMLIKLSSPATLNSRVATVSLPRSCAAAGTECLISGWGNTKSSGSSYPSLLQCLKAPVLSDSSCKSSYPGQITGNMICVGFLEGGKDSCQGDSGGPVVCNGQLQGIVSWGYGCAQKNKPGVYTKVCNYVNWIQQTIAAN

[3] = target: CAAX prenyl protease 2 (Homo sapiens, UniProt Q9Y256); experiment: inhibition of Ras-converting CAAX protease Rce1 – biochemical, yeast membranes, quenched-peptide fluorescence, cherry-pick, dose response (AID 588849)
Chain of CAAX prenyl protease 2 (Q9Y256 whole entry): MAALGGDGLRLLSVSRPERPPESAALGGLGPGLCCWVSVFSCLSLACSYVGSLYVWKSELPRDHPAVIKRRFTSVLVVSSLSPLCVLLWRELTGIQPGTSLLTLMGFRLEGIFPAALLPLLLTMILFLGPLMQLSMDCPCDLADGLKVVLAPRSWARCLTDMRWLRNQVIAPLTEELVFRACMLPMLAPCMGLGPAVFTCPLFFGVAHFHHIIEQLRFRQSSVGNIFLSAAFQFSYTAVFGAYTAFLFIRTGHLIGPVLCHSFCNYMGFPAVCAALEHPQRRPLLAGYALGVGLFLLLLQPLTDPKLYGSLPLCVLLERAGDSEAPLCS

[4] = target: Ephrin type-A receptor 4 (Mus musculus, UniProt Q03137); experiment: EphA4 ligand-binding antagonists – biochemical, colorimetric, mouse EphA4, primary screen (AID 689); format: functional
[5] = target: Cytochrome P450 2C19 (Homo sapiens, UniProt P33261); experiment: Cytochrome panel assay with activity outcomes. Panel member name: p450-cyp2c19 Compounds with AC50 equal or less than 10 uM are considered active; format: functional; settings: read-out: AC50
Chain of Cytochrome P450 2C19 (P33261 whole entry): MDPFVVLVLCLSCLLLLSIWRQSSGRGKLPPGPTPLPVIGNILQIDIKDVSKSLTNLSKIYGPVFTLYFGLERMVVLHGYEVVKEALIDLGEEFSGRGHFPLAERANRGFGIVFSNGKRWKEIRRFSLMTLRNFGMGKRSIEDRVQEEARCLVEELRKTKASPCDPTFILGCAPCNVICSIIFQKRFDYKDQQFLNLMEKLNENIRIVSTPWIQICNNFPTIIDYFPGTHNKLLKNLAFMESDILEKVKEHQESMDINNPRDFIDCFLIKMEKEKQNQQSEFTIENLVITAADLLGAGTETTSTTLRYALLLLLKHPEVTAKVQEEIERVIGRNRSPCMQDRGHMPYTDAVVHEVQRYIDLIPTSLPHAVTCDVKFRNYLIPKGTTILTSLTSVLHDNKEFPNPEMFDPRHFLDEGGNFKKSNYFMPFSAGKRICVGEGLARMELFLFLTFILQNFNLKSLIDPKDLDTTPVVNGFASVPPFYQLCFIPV

[6] = target: Cytochrome P450 3A4 (Homo sapiens, UniProt P08684);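 note: CYP3A4 tested as one member of a cytochrome P450 panel screen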
Chain of Cytochrome P450 3A4 (P08684 whole entry): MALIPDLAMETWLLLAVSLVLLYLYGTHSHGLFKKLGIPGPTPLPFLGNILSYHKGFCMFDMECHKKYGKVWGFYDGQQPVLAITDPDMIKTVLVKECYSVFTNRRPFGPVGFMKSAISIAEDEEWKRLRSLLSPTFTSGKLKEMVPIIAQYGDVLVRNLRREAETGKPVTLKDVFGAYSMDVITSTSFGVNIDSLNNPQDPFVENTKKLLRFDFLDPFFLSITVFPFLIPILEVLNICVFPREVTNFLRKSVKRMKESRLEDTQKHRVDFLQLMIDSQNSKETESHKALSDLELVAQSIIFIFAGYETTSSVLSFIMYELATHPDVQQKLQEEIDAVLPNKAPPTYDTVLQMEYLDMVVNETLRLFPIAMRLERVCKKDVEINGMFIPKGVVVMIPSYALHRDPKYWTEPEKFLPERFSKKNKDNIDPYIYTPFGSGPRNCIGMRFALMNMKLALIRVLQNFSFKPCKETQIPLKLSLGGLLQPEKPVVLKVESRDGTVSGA

[7] = target: Cytochrome P450 2D6 (Homo sapiens, UniProt P10635);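 note: CYP2D6 member of a cytochrome P450 panel assay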
Chain of Cytochrome P450 2D6 (P10635 whole entry): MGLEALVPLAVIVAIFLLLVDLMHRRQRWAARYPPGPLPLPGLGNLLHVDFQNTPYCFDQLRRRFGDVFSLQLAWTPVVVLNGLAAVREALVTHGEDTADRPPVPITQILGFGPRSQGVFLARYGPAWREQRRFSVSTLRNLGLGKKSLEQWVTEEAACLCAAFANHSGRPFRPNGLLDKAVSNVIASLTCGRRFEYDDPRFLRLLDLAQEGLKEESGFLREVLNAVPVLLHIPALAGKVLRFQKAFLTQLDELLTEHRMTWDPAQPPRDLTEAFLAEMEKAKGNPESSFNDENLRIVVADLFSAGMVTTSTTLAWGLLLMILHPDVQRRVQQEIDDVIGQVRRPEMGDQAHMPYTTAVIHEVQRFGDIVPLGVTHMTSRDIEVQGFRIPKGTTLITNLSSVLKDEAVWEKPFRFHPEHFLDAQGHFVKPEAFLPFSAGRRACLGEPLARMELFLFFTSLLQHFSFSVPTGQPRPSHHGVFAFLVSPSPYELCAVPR

[8] = target: T1, Sentrin-specific protease 8 (Homo sapiens, UniProt Q96LD8); experiment: inhibition of human SENP8 cleavage activity – biochemical, luminescence, SAR follow-up (AID 504501); format: functional
T1 sequence (Q96LD8 whole entry): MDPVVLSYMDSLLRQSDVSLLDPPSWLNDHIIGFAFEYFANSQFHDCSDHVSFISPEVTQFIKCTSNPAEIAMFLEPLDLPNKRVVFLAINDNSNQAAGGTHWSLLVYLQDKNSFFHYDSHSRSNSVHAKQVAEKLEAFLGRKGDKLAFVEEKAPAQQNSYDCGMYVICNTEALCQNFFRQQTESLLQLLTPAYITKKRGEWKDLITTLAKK

[9] = target: T2, Caspase-3 (Homo sapiens, UniProt P42574); experiment: SAR Analysis of small molecule inhibitors of Sentrin-specific proteases (SENPs) using a Caspase-3 Selectivity assay. [Related pubchem assays (depositor defined):AID2540, AID2599, AID434973, AID489001]; format: functional
T2 sequence (P42574 whole entry): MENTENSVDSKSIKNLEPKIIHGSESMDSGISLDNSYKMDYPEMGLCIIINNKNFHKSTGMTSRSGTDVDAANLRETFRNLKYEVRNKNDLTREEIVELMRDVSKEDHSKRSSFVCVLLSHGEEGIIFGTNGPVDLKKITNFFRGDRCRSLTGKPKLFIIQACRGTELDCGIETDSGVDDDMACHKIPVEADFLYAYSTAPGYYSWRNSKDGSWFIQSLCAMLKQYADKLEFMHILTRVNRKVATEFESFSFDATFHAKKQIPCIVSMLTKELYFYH

[10] = target: T3, Sentrin-specific protease 6 (Homo sapiens, UniProt Q9GZR1); experiment: SAR Analysis of small molecule inhibitors of Sentrin-specific protease 6 (SENP6) using a Luminescent assay. [Related pubchem assays (depositor defined):AID2582, AID2599]; format: functional
T3 sequence (Q9GZR1 whole entry): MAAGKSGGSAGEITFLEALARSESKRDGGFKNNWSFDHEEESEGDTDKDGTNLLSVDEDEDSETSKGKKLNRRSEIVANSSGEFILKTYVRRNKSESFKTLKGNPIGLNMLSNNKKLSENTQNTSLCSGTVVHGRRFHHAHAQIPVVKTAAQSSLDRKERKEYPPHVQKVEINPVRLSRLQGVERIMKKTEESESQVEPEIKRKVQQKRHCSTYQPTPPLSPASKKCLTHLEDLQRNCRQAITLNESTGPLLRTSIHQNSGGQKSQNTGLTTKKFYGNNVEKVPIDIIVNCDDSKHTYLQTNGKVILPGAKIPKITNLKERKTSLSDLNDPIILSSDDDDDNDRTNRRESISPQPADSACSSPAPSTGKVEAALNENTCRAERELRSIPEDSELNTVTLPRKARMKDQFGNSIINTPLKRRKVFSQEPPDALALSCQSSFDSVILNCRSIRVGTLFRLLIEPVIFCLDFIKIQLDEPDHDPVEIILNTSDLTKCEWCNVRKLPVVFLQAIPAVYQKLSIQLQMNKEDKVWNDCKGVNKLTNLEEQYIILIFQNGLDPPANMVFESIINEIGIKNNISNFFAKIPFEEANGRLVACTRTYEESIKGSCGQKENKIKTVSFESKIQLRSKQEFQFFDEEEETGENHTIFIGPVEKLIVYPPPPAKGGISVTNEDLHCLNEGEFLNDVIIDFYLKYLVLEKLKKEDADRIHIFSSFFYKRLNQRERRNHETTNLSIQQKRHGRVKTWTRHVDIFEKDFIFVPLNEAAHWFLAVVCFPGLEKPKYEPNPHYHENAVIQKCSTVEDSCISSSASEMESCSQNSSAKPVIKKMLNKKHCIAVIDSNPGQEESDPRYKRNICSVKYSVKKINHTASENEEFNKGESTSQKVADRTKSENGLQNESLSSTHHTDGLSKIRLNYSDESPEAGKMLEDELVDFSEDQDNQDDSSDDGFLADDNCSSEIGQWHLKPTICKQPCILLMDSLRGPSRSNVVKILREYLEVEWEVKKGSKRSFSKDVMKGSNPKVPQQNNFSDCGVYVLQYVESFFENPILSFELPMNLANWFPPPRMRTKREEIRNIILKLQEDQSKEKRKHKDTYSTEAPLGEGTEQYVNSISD

[11] = target: T4, Sentrin-specific protease 7 (Homo sapiens, UniProt Q9BQF6); experiment: inhibition of human SENP7 cleavage activity – biochemical, luminescence, SAR follow-up (AID 504497); format: functional
T4 sequence (Q9BQF6 whole entry): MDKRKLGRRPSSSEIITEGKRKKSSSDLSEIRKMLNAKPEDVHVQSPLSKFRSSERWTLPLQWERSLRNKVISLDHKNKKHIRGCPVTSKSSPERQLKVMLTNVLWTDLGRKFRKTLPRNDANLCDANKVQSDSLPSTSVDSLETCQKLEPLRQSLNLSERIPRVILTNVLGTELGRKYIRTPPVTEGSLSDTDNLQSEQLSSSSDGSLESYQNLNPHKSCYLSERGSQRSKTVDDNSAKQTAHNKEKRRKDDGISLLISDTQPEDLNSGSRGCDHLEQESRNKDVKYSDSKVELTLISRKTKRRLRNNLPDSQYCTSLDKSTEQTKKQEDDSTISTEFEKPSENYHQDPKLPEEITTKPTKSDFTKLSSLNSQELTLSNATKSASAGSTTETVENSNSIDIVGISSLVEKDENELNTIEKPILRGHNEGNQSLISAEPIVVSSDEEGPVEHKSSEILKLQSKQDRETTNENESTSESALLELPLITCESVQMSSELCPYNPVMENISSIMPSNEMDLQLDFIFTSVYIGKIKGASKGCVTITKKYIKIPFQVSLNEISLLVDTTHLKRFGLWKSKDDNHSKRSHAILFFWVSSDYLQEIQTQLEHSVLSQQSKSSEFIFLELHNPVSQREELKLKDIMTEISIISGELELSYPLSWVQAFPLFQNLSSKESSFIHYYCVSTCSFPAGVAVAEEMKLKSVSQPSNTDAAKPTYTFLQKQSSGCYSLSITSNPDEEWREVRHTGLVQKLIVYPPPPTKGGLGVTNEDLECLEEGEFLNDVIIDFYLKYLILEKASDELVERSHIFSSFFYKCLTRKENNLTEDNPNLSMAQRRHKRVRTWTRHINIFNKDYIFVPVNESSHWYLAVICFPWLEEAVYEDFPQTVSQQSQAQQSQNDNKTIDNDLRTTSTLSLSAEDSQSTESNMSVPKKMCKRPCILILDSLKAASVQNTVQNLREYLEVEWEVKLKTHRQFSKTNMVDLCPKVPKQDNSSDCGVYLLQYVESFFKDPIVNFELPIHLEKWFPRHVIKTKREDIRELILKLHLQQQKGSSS

[12] = system: Escherichia coli; experiment: microbe, parasite or virus in culture
[13] = system: Escherichia coli; experiment: microbe, parasite or virus in culture; remark: listed apart in the source
[14] = target: Beta-2 adrenergic receptor (Homo sapiens, UniProt P07550); experiment: ADRB2 activation measured by internalization – cell-based, FAP fluorogen, flow cytometry, cherry pick 1, dose response (AID 588763); format: functional
Chain of Beta-2 adrenergic receptor (P07550 whole entry): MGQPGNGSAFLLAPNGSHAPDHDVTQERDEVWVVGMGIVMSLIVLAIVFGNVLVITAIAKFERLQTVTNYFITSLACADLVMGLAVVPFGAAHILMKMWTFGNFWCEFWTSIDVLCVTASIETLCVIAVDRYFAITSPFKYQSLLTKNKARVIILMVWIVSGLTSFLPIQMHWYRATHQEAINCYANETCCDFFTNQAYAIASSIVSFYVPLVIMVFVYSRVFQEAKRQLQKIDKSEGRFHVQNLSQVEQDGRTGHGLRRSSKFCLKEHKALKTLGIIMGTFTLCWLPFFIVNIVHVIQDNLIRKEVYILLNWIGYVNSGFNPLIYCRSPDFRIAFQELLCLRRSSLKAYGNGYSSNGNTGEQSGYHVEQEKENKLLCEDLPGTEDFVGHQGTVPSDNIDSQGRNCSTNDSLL

[15] = target: Exodeoxyribonuclease V (Escherichia coli (strain K12), UniProt P04993+P07648+P08394); experiment: RecBCD inhibition via phage-restricted bacterial growth – absorbance, V66 E. coli, mutant T4 phage, counter-screen for AddAB inhibitor project, dose response (AID 492957); format: functional, cell-based, Escherichia coli str. K-12 substr. MG1655
[16] = Counterscreen for AddAB inhibitors: absorbance-based bacterial cell-based high throughput dose response assay for inhibitors of bacterial viability. [Related pubchem assays (depositor defined):AID435030, AID449728, AID449731, AID488942, AID488955, AID488956]; format: functional
[17] = target: Peroxisome proliferator-activated receptor gamma/Nuclear receptor coactivator 1 (Homo sapiens, UniProt P37231); experiment: (§1) TR-FRET dose response biochemical High Throughput Screening assay for agonists of the steroid receptor coactivator 1 (SRC-1) recruitment by the peroxisome proliferator-activated receptor gamma (PPAR gamma): non-selective agonists. [Related pubchem assays (depositor defined):AID1300, AID1808, AID504735, AID631]; format: protein assay
[18] = target: Peroxisome proliferator-activated receptor gamma/Nuclear receptor coactivator 3 (Homo sapiens, UniProt P37231); experiment: as §1, with “3 (SRC-3)” for “1 (SRC-1)”, “assays: 1301 (Confirmation screen.), 1048 (Primary screen.)]” for “assays (depositor defined):AID1300, AID1808, AID504735, AID631]”; format: functional
Chain of Peroxisome proliferator-activated receptor gamma/Nuclear receptor coactivator 3 (P37231 whole entry): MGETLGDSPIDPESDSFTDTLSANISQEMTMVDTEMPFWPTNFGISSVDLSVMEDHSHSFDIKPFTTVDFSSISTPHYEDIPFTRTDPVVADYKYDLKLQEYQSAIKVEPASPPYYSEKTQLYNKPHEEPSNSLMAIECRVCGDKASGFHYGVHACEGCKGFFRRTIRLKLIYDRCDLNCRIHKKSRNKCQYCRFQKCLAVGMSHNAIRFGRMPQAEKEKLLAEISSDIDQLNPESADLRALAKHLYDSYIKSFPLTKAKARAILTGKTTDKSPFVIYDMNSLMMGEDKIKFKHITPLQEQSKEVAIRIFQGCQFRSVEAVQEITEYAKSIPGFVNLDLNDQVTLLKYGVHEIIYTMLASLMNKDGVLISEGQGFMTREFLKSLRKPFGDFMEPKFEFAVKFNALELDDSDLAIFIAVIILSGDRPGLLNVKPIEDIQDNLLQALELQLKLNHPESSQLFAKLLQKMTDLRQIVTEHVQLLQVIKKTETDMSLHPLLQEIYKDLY
Chain of Peroxisome proliferator-activated receptor gamma/Nuclear receptor coactivator 3 (Q9Y6Q9 whole entry, further chain): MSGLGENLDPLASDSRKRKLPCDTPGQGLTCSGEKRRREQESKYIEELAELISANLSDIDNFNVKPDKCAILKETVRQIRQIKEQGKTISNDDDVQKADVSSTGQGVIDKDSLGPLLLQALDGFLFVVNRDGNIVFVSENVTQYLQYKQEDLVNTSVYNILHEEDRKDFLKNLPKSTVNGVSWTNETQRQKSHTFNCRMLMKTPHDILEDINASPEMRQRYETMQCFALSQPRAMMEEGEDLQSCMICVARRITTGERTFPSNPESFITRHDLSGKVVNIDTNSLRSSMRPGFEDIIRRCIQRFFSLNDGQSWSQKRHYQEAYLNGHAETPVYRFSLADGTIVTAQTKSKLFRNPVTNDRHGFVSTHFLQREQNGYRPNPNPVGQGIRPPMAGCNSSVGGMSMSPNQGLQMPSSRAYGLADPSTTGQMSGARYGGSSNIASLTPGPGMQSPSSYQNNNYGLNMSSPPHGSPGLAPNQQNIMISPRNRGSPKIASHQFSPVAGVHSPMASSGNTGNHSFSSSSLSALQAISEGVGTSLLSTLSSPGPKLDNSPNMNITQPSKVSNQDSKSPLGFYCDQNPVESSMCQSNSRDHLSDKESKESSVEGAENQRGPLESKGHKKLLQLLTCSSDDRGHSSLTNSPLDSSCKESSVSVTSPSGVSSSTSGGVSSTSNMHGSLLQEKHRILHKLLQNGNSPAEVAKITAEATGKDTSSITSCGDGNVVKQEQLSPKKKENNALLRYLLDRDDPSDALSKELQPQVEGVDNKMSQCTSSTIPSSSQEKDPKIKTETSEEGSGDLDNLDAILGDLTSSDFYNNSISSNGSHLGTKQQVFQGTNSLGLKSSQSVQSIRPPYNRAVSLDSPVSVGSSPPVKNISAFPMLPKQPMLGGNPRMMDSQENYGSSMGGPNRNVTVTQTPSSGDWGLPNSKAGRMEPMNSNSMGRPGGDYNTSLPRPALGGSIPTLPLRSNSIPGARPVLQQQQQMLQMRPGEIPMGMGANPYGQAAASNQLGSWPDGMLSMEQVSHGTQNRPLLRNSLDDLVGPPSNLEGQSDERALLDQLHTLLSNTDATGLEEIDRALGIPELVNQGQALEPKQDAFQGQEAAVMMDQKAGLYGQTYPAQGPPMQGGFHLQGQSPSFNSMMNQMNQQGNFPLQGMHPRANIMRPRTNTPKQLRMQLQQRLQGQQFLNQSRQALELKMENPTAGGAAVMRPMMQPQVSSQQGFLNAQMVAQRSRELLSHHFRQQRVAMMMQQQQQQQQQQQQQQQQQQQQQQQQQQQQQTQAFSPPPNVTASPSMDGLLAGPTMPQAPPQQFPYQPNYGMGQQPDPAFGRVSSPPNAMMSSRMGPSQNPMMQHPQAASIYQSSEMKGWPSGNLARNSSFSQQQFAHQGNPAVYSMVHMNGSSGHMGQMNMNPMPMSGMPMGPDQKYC

[19] = target: Peroxisome proliferator-activated receptor gamma/Nuclear receptor coactivator 2 (Homo sapiens, UniProt P37231); experiment: TR-FRET dose response biochemical High Throughput Screening assay for agonists of the steroid receptor coactivator 2 (SRC-2) recruitment by the peroxisome proliferator-activated receptor gamma (PPAR gamma): non-selective agonists. [Related pubchem assays: 1297, 1032 ]; format: functional
[20] = target: T5, Heat shock factor protein 1 (Mus musculus, UniProt P38532); experiment: enhancement of HSF1-driven luciferase signal – cell-based, NIH3T3, luminescence, dose retest, confirmation (AID 435004); format: functional;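 note: stress induced by proteasome inhibitor MG132 added 30 min after compound; luciferase reporter driven by HSF1 response element in NIH3T3 cells; actives raise luminescence as potentiators of the MG132 stress response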
T5 sequence (P38532 whole entry): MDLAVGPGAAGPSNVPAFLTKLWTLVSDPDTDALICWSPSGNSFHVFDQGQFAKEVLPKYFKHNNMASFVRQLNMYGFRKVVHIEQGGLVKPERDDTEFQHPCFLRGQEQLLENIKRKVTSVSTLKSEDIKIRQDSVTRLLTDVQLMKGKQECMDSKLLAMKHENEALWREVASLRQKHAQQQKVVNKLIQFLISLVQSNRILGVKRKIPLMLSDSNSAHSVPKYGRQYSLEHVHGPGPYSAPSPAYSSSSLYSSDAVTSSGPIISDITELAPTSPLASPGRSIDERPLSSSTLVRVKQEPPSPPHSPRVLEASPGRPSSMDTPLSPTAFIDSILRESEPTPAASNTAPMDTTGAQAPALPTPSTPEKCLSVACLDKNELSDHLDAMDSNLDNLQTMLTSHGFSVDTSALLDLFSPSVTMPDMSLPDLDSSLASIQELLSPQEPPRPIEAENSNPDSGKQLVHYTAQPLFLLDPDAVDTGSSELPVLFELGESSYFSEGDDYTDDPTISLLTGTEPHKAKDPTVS

[21] = target: Tumor necrosis factor (Homo sapiens, UniProt P01375); experiment: analog potency on TNFa NF-kB signaling – cell-based, revised, SAR follow-up (AID 2337); format: functional
Chain of Tumor necrosis factor (P01375 whole entry): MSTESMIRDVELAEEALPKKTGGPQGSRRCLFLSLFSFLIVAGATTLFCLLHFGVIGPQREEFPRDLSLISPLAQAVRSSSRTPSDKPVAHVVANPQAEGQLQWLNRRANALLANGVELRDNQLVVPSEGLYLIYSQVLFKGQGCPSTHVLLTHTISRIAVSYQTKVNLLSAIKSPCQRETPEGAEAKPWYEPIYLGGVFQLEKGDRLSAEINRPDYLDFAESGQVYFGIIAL

[22] = system: HEK293; experiment: cells; settings: Homo sapiens;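 note: cells exposed to compound for 14 hours overnight before viability readout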

O=C1NC(=S)SC1=Cc1ccc(F)cc1
AC50 [1]: 0.622 µM (active)

COC(=O)c1c(-c2ccc(OC)cc2)oc2ccc(-c3ccc(OC)nc3)cc12
AC50 [2]: 5.18 µM (active) | AC50 [3]: 1.15 µM (active)

COc1cc(NC(=O)c2ccc(COCC(F)(F)F)cc2)cc(OC)c1OC
IC50 [4]: > 100 µM (not active) | AC50 [5]: 28.2 µM (inconclusive) | AC50 [6]: 22.4 µM (inconclusive) | AC50 [7]: inconclusive

O=[N+]([O-])c1cc(/C=N/Nc2cc(N3CCOCC3)nc(N3CCOCC3)n2)cc2c1OCO2
IC50 [8]: > 99 µM (inactive) | IC50 [9]: > 99 µM (inactive) | IC50 [10]: > 99 µM (inactive) | IC50 [11]: > 99 µM (inactive)

CC1(C)CC(CCNS(=O)(=O)c2ccccc2)(c2ccccc2)CCO1 (centres undefined)
AC50 [12]: 52.9 µM (active) | AC50 [13]: 251 µM (active)

NC(=O)CC(NC(=O)Cc1ccc(Cl)cc1)c1ccc(NCCCN2CCCC2=O)c([N+](=O)[O-])c1 (centres undefined)
EC50 [14]: 2.2 µM (active)

CCn1cc(C(=O)O)c(=O)c2cnc(N3CCN(C(=S)Nc4ccccc4C(F)(F)F)CC3)nc21
IC50 [15]: > 39.5 µM (inactive) | IC50 [16]: 3.33 µM (active)

Cc1c(Nc2ncnc3c2cnn3-c2ccccc2)c(=O)n(-c2ccccc2)n1C
AC50 [13]: 51.5 µM (active)

CC(C)OC(=O)c1c(-c2ccc(Br)cc2)csc1NC(=O)C1CCC1
IC50 [8]: 1.58 µM (active) | IC50 [9]: 1.98 µM (active) | IC50 [10]: 1.22 µM (active) | IC50 [11]: 1.53 µM (active)

C=CCN1C=C2C(=O)C(C)(OC(=O)c3ccc(OC)cc3)C(=O)C(c3ccco3)=C2C=C1CCCC (centres undefined)
AC50 [12]: 22.3 µM (active)

CCN(CC)CCCNC(=O)CSc1c2c(nc3cc(Cl)ccc13)CCCC2
EC50 [17]: > 79.4 µM (inactive) | EC50 [18]: > 79.4 µM (not active) | EC50 [19]: > 79.4 µM (not active) | EC50 [20]: 17.3 µM (active)

Cc1ccc(SCc2noc(C(=O)NCC3CCCO3)c2C(=O)O)cc1C (centres undefined)
AC50 [7]: inconclusive

O=C(Nc1ccc(F)cc1)c1ccc(CN2CCCCC2)cc1
IC50 [21]: > 20 µM (inactive) | IC50 [22]: > 20 µM (inactive)
